Reference: patent US9522884B2, “Compositions and methods for the treatment of metabolic disorders” (CELLIXBIO PRIVATE LIMITED, priority 2012, dated 2016)

How the values were obtained:
[1] = tested on: STZ-diabetic rats; assay: Prevention of arterial stiffening in diabetes: STZ-diabetic rats treated 8 weeks via drinking water; format: in vivo, Male Wistar rats; conditions: STZ-diabetic rats (DM), 1 g·L-1 in drinking water, n = 12, mean ± SEM
Procedure: (§1) Diabetes was induced in rats by a single tail vein injection with 55 mg·kg-1 steptozotocin (STZ). After induction of hyperglycaemia, animals were treated for 8 weeks with pyridoxamine (1 g·L-1 in drinking water) and Formula-I (1-2) (1 g·L-1 in drinking water) were compared with the age-matched untreated diabetic controls. Pulse wave reflection along the vasculature was derived using the impulse response function of the filtered aortic input impedance spectra.
(§2) Male Wistar rats at 2 months were randomly divided into six groups (n=12 in each group) as follows: (i) normal controls (NC); (ii) STZ-diabetic rats (DM); (iii) NC treated with PM (NC+PM); (iv) NC treated with Formula-I (1-2) (NC+Formula-I (1-2)); (v) DM treated with PM (DM+PM); and (vi) DM treated with Formula-I (1-2) (DM+Formula-I (1-2)). Diabetes was induced in animals by a single tail vein injection with 55 mg·kg-1 STZ in 0.1 M citrate buffer (pH 4.5). After confirmation of the development of hyperglycaemia (2 days later) by blood glucose determination using a sure step Test Strip, rats were randomly allocated into a vehicle-treated diabetic group, and a treatment group receiving PM in drinking water of 1 g·L-1 and Formula-I (1-2) in drinking water of 1 g·L-1. Animals were studied 8 weeks after exposure to PM to determine its effects on the pulsatile nature of blood flows in the diabetic arteries.
(§3) Effects of Diabetes and Pyridoxamine and Formula-I (1-2) on Blood Glucose Level, Body Weight, Left Ventricular Weight and Aortic Pressure Profile in Male Wistar Rats: […]

[2] = tested on: normal controls (NC) rats; assay: Normal control rats treated 8 weeks via drinking water (same study); format: in vivo, Male Wistar rats; conditions: 1 g·L-1 in drinking water, n = 12, mean ± SEM
Procedure: as §1, §2, §3

Structure (SMILES) | BW (body weight) [1] [g] | Glucose [1] [mg/mL] | LVW (left ventricular weight) [1] [g] | LVW/BW [1] [mg/g] | Pd (diastolic aortic pressure) [1] [mmHg] | Pm (mean aortic pressure) [1] [mmHg] | Ps (systolic aortic pressure) [1] [mmHg] | BW (body weight) [2] [g] | Glucose [2] [mg/mL] | LVW (left ventricular weight) [2] [g] | LVW/BW [2] [mg/g] | Pd (diastolic aortic pressure) [2] [mmHg] | Pm (mean aortic pressure) [2] [mmHg] | Ps (systolic aortic pressure) [2] [mmHg]
Cc1ncc(CO)c(CN)c1O [PM, pyridoxamine] | 296.3 ± 16.4 | 4.305 ± 0.209 | 0.609 ± 0.029 | 2.07 ± 0.04 | 73.2 ± 2.1 | 89.9 ± 2.0 | 103.3 ± 2.0 | 420.0 ± 11.5 | 1.004 ± 0.032 | 0.722 ± 0.023 | 1.72 ± 0.03 | 77.6 ± 3.0 | 92.5 ± 2.7 | 106.0 ± 2.5
CC/C=C\C/C=C\C/C=C\C/C=C\C/C=C\CCCC(=O)OC(C)OC(=O)NCc1c(CO)cnc(C)c1O (stereo not shown) [Formula 1(1-2)] | 299.8 ± 14.9 | 4.128 ± 0.189 | 0.599 ± 0.0349 | 1.989 ± 0.034 | 72.5 ± 1.98 | 88.9 ± 1.96 | 102.7 ± 1.098 | 418.0 ± 13.8 | 1.051 ± 0.014 | 0.789 ± 0.016 | 1.69 ± 0.04 | 76.7 ± 4.10 | 91.4 ± 3.7 | 103.1 ± 2.5
